Measured values from US11207299B2, “Biphenyl sulfonamide compounds for the treatment of type IV collagen diseases” (Travere Therapeutics, Inc., priority 2018, dated 2021).
“Also recorded” adds a separate entry of the source.

Key:
Type in all cases: in vivo, mouse
[1] = test system: autosomal Alport mice (COL4A3^−/−); assay: Pilot study: dose-dependent effects of sparsentan in Alport mice treated from 3-7 weeks of age; conditions: for SBP / UP/C / DBP / Sclerotic Glomeruli (%) / BUN / Fibrosis Score: mean ± SD; for Sclerotic Glomeruli (%): fibronectin staining; for Fibrosis Score: at 7 wk, COL1-positive cortical area scored 0=<5% to 5=75-100%
From the text: (§1) Vehicle or sparsentan was given daily by oral gavage to autosomal Alport mice (COL4A3^−/−) on the 129/Sv background (male and female) in five separate studies: a pilot study, an early intervention study (treated from 3-7 weeks of age), a late intervention study (treated from 5-7 weeks of age after the onset of glomerular (GM) changes), a lifespan study, and a hearing study (FIG. 1). The early intervention, late intervention, lifespan, and hearing studies also included mice treated with a comparator, losartan, which was given orally at 3-4 weeks of age in the early intervention study, in drinking water at 4-7 weeks of age in the early intervention study, and in drinking water at 5-7 weeks in the late intervention study.
(§2) Efficacy renal endpoints included blood urea nitrogen (BUN), proteinuria (urine protein to creatinine ratio, or UP/C), glomerulosclerosis, tubulointerstitial fibrosis, leucocyte infiltration, and glomerular basement morphology (GBM) using transmission electron microscopy (TEM). Endpoints in the inner ear included auditory brain stem response (ABR) threshold as a measure of noise-induced hearing loss, strial capillary basement membrane thickness, and inner ear pathology by TEM.
(§3) In the pilot study, designed to determine an optimal efficacious dose of sparsentan, Alport mice (3-4 per group) were dosed with vehicle (0.5% methylcellulose 4000 cps/0.25% Tween® 80 in distilled water) or sparsentan at 60 mg/kg or 200 mg/kg from 3 to 7 weeks of age for 28 days. Although 200 mg/kg sparsentan was efficacious in the pilot study, BUN levels were higher than those of Alport mice dosed with 60 mg/kg sparsentan (Table 1; FIG. 2A; FIG. 2B). This observation led to the selection of a 120 mg/kg dose of sparsentan to take forward into the early intervention study. During the pilot study, blood pressure (BP) was measured weekly using the CODA2 tail cuff system. Stria from this pilot study were also examined by immunofluorescence using antibodies to laminin α2
(§4) For the pilot, early intervention, late intervention, and lifespan studies, spot urine was sampled pre-study and weekly during treatment and analyzed for protein (UP) and creatinine (C) to determine proteinuria (UP/C). At the end of each study the animals were euthanized, blood samples were taken, BUN was measured from serum, and kidneys were harvested for structural and immuno-fluorescent measurements. Glomerulosclerosis was assessed by immunofluorescence (IF) using an antibody to fibronectin (FN). Visual counting of the number of sclerotic glomeruli as a proportion of the total number of glomeruli per slide was used to calculate the percentage of sclerotic glomeruli. Sections were co-stained with an anti-CD45 antibody to indicate leucocyte infiltration. Tubulointerstitial fibrosis was determined by IF of kidney sections using an antibody to collagen 1 (COL1). Tubulointerstitial fibrosis (TIF) scoring was conducted by visual assessment of the COL1 positive area as a percentage of the total cortical area and was performed blinded. The fibrosis scoring (“Fibrosis Score”) was categorized according to visual judgment of percentage of total cortical area, as: 0=<5%, 1=5-10%, 2=10-25%, 3=25-50%, 4=50-75%, or 5=75-100%. Ultrastructural changes in GBM and podocyte morphology were observed using transmission electron microscopy (TEM).

[2] = test system: autosomal Alport mice (COL4A3^−/−); assay: Early intervention study in Alport mice (treated from 3-7 weeks of age)
From the text: as §1, §2
In the early intervention study, wild-type and Alport mice were dosed daily by oral gavage with vehicle or sparsentan at 120 mg/kg from 3 to 7 weeks of age (7-8 mice per group), or with losartan at 20 mg/kg by oral gavage from 3-4 weeks of age (during weaning) and 10 mg/kg in drinking water from 4-7 weeks of age.
as §4

[3] = test system: autosomal Alport mice (COL4A3^−/−); assay: Lifespan study in Alport mice
From the text: as §1
In the lifespan study, Alport mice (n=10) were dosed using the same methodology as in the early intervention study, except that dosing was continued until mice had lost 10% of their peak body weight, after which they were euthanized.
For the pilot, early intervention, late intervention, and lifespan studies, spot urine was sampled pre-study and weekly during treatment and analyzed for protein (UP) and creatinine (C) to determine proteinuria (UP/C). At the end of each study the animals were euthanized, blood samples were taken, BUN was measured from serum, and kidneys were harvested for structural and immuno-fluorescent measurements. Glomerulosclerosis was assessed by immunofluorescence (IF) using an antibody to fibronectin (FN). Visual counting of the number of sclerotic glomeruli as a proportion of the total number of glomeruli per slide was used to calculate the percentage of sclerotic glomeruli. Sections were co-stained with an anti-CD45 antibody to indicate leucocyte infiltration. Tubulointerstitial fibrosis was determined by IF of kidney sections using an antibody to collagen 1 (COL1). Tubulointerstitial fibrosis (TIF) scoring was conducted by visual assessment of the COL1 positive area as a percentage of the total cortical area and was performed blinded. […]

[4] = test system: laminin α2 in stria of Alport mice; assay: Immunofluorescence of laminin α2 in stria of Alport mice; conditions: Alport mice, sparsentan 200 mg/kg from 3-7 weeks of age (pilot study)
Description: as §3, with “Stria from this pilot study were also examined by immunofluorescence using antibodies to laminin α2” left out
For the hearing study, wild-type or Alport mice were treated according to daily from 3-8.5 weeks of age by oral gavage with vehicle (0.5% methylcellulose 4000 cps/0.25% Tween® 80 in distilled water) or 120 mg/kg sparsentan or losartan at 20 mg/kg by oral gavage from 3-4 weeks of age (during weaning) and 10 mg/kg in drinking water from 4-7 weeks of age (n=5). The progression of Alport disease was assessed at 7 weeks of age by the amount of proteinuria (via urinalysis reagent strips—data not shown). […] Hearing ability and sensitivity to noise were assessed between 7 and 8 weeks of age by Auditory Brainstem Response (ABR), pre-noise exposure. […]

[5] = Alport mice, sparsentan 60 mg/kg, at 5 wk of age
[6] = Alport mice, sparsentan 60 mg/kg, at 6 wk of age
[7] = Alport mice, sparsentan 60 mg/kg, at 7 wk of age
[8] = Alport mice, sparsentan 200 mg/kg, at 5 wk of age
[9] = Alport mice, sparsentan 200 mg/kg, at 6 wk of age
[10] = Alport mice, sparsentan 200 mg/kg, at 7 wk of age
[11] = Alport mice, sparsentan 120 mg/kg, at 7 wk of age, mean ± SD

BUN levels after 200 mg/kg compared to 60 mg/kg sparsentan ([1]; Alport mice, 7 weeks of age, 4 weeks of dosing): elevated
SMILES: CCCCC1=NC2(CCCC2)C(=O)N1Cc1ccc(-c2ccccc2S(=O)(=O)Nc2noc(C)c2C)c(COCC)c1 [sparsentan]
SBP ([1]; Alport mice, sparsentan 60 mg/kg oral daily from 3 wk, at 5 wk of age, n = 4): 114.0 ± 13.0 mmHg | UP/C ([1]; Alport mice, sparsentan 60 mg/kg, at 4 wk of age): 3.4 ± 2.6 mg/mg | DBP [1, 5]: 71.1 ± 10.7 mm/Hg | UP/C [1, 5]: 8.6 ± 2.4 mg/mg | DBP [1, 6]: 72.9 ± 9.6 mm/Hg | SBP [1, 6]: 106.2 ± 6.9 mmHg | UP/C [1, 6]: 1.5 ± 1.5 mg/mg | Sclerotic Glomeruli (%) [1, 7]: 3.5±1.6% | BUN [1, 7]: 17.1 ± 1.5 mg/dL | DBP [1, 7]: 78.1 ± 14.7 mm/Hg | SBP [1, 7]: 117.6 ± 4.6 mmHg | UP/C [1, 7]: 5.6 ± 3.0 mg/mg | Fibrosis Score ([1]; Alport mice, sparsentan 60 mg/kg): 0.0 ± 0.0 | SBP ([1]; Alport mice, sparsentan 200 mg/kg oral daily from 3 wk, at 5 wk of age, n = 3): 110.6 ± 21.8 mmHg | UP/C ([1]; Alport mice, sparsentan 200 mg/kg, at 4 wk of age): 2.1 ± 3.7 mg/mg | DBP [1, 8]: 99.7 ± 7.7 mm/Hg | UP/C [1, 8]: 3.9 ± 3.5 mg/mg | DBP [1, 9]: 74.6 ± 21.4 mm/Hg | SBP [1, 9]: 108.7 ± 26.4 mmHg | UP/C [1, 9]: 1.5 ± 2.7 mg/mg | Sclerotic Glomeruli (%) [1, 10]: 1.4±1.3% | BUN [1, 10]: 25.9 ± 7.7 mg/dL | DBP [1, 10]: 91.7 ± 20.0 mm/Hg | SBP [1, 10]: 122 ± 20.9 mmHg | UP/C [1, 10]: 0.8 ± 1.4 mg/mg | Fibrosis Score ([1]; Alport mice, sparsentan 200 mg/kg): 0.0 ± 0.0 | Prevention of UP/C, glomerulosclerosis, and fibrosis compared to vehicle-treated mice ([1]; sparsentan 60 and 200 mg/kg, 3-7 weeks of age): prevented an increase in glomerulosclerosis in a dose-dependent manner; also recorded: dose-dependent prevention | Systolic and diastolic blood pressure compared to vehicle-treated Alport mice ([1]; sparsentan 60 or 200 mg/kg, 6 weeks of age (3 weeks of dosing)): significantly lower | COL1 immunoreactivity ([1]; sparsentan-treated Alport mice, pilot study, kidney sections): absent | BP compared to vehicle-treated Alport mice ([1]; sparsentan, end of pilot study (7 weeks of age; 4 weeks of dosing)): no difference | GBM damage and podocyte effacement (TEM) ([2]; Alport mice, sparsentan 120 mg/kg, early intervention): prevented changes in GBM ultrastructural morphology; also recorded: amelioration | UP/C ([2]; Alport mice, sparsentan 120 mg/kg oral daily from 3 wk, at 4 wk of age, mean ± SD, n = 8): 3.8 ± 1.3 mg/mg | UP/C ([2]; Alport mice, sparsentan 120 mg/kg, at 5 wk of age, mean ± SD): 10.4 ± 2.8 mg/mg | UP/C ([2]; Alport mice, sparsentan 120 mg/kg, at 6 wk of age, mean ± SD): 13.6 ± 3.7 mg/mg | BUN [2, 11]: 17.5 ± 3.3 mg/dL | Sclerotic Glomeruli (%) [2, 11]: 0.8 ± 1.7 % | UP/C [2, 11]: 14.0 ± 3.3 mg/mg | Fibrosis Score ([2]; Alport mice, sparsentan 120 mg/kg, at 7 wk, score 0=<5% to 5=75-100% COL1 area, mean ± SD): 0.0 ± 0.0 | Development of nephropathy in Alport mice ([2]; sparsentan 120 mg/kg 28 days or losartan 20 mg/kg 7 days then 10 mg/kg 21 days, from 3 weeks of age): prevented | UP/C, BUN, glomerulosclerosis, and fibrosis vs. vehicle-treated Alport mice ([2]; sparsentan 120 mg/kg or losartan 20/10 mg/kg from 3 weeks of age, P<0.05): significant attenuation | TIF or glomerulosclerosis ([2]; sparsentan- or losartan-treated Alport mice, early intervention): little to no | Lifespan compared to vehicle-treated Alport mice ([3]; dosing as in early intervention study, continued until 10% loss of peak body weight, P<0.05): significantly longer; also recorded: significantly greater | Median lifespan ([3]; sparsentan compared with losartan): the same as losartan | Accumulation of laminin α2 in stria [4]: prevented
